Test results reported in patent publication US20260041640A1 (INCYCLIX BIO, LLC, priority 2023, published 2026).
Converted amounts (≈) assume the structure as drawn. Like-named read-outs stand apart in the source and are kept apart here.

Key:
[1] = Plasma protein binding, dog; assay type: in vitro ADME
Description: Additionally, the whole blood-to-plasma ratio (KWB/P) in humans is 6.20, which also exceeds the other species tested (Table 7).

[2] = Toxicity and toxicokinetics studies, rat; assay type: in vivo, Sprague Dawley rats
Experimental: Nominal dose values and sampling times were used for calculations. Any concentration reported as BLQ (LLOQ<1.0 ng/mL) was set equal to zero. Toxicokinetic analyses included Cmax, Tmax, AUC0-24, t1/2, RA Cmax, and RA AUC0-24.
Following this, human dose exposure was simulated using a combined whole blood and plasma compartment PK model using allometry and whole blood parameter estimates for the absorption rate constants and bioavailability per animal species. Absolute dose administration was used for modeling. V1, CL, V2, and Q parameters were extrapolated to human using allometric scaling. CL, Q by exponent equaled 0.818. V1, V2 by exponent equaled 1.03. Human body weight was set to 75 kg. Absorption rate constant (KA) was in reasonable ranges in mouse, rat, and dog, with values of 0.44, 0.53, and 0.18 (1/hr), respectively.
(§1) All INX-315 tablets were taken at approximately the same time(s) each day.

[3] = tested on: LU5202 [small cell lung cancer (SCLC)] patient-derived xenograft (PDX) model; assay type: in vivo
Experimental: 8-week-old NOD/SCID female mice (n=59) were split into two cohorts. A total of 29 mice were enrolled in cohort 1 of the study. A total of 30 mice were enrolled in […] of the study. When the average tumor volume reached 150-250 mm^3, all animals were randomly allocated to the 6 different study groups using Study Log software (Table 24). Animals were monitored weekly for palpable tumors, or any changes in appearance or behavior. Once tumors were palpable, tumors were measured at least once weekly using calipers. Body weight was measured at least 2 times per week following randomization and initiation of treatment.

[4] = Aqueous solubility of INX-315; assay type: physicochemical
[5] = First-in-human clinical study: safety and tolerability; assay type: in vivo
Experimental: as §1
Cohort 1 enrollment of 6 subjects dosed at 100 mg oral QD was completed in October of 2023.

## NS(=O)(=O)c1ccc(Nc2ncc3cc4n(c3n2)C2(CCCCC2)C(=O)NN4)cc1 [INX-315]
[1]
  fraction unbound: 0.04
[2]; both sexes, Sprague Dawley, rat, in vivo, po
  bioavailability: 8%
[2]; both, Sprague Dawley, rat, in vivo
  Absorption rate constant (KA): 0.53 h⁻¹
[2]; rats
  human equivalent dose (HED) of the no observed adverse effect level (NOAEL): 9730 mg/day
  safety margin of 100 mg QD starting dose vs HED of NOAEL: 97 fold
[3]; cohort 1, INX-315 100 mg/kg added to chemotherapy (cisplatin + etoposide)
  tumor growth inhibition: 70%
[3]; cohort 1, chemotherapy and INX-315
  body weight / tolerability: lost weight and did not tolerate the treatment well
[3]; cohort 1, monotherapy 100 mg/kg BID PO
  tumor growth inhibition: 62%
[3]; cohort 1, monotherapy 150 mg/kg BID PO
  tumor growth inhibition: 66%
[3]; cohort 2, INX-315 100 mg/kg added to chemotherapy
  tumor growth inhibition: 94%
[3]; cohort 2, monotherapy 100 mg/kg BID PO
  tumor growth inhibition: 70%
[3]; cohort 2, monotherapy 150 mg/kg BID PO
  tumor growth inhibition: 87%
[4]; 0.01 N HCl, simulated gastric fluid, 0.01N HCl, read-out: Dissolved Drug Solubility
  solubility: 269 ± 92 µg/mL (≈ 629 µM)
[4]; 50 mM Na acetate, aqueous buffer, 50 mM Na Acetate, read-out: Total Drug Solubility
  solubility: 19 ± 7 µg/mL (≈ 44.4 µM)
[4]; 0.224% SIF in PBS, fassif, 0.224% SIF in PBS, read-out: Dissolved Drug Solubility
  solubility: 5.3 ± 0.4 µg/mL (≈ 12.4 µM)
[4]; 0.224% SIF in PBS, fassif, 0.224% SIF in PBS, read-out: Total Drug Solubility
  solubility: 6.1 ± 0.4 µg/mL (≈ 14.3 µM)
[4]; 0.5% SIF in PBS, fassgf or other biorelevant, 0.5% SIF in PBS, read-out: Dissolved Drug Solubility
  solubility: 11 ± 1 µg/mL (≈ 25.7 µM)
[4]; 0.5% SIF in PBS, fassgf or other biorelevant, 0.5% SIF in PBS, read-out: Total Drug Solubility
  solubility: 15 ± 0.2 µg/mL (≈ 35.1 µM)
[4]; 0.5% Tween-80 in PBS, aqueous with cosolvent or surfactant or cyclodextrin, 0.5% Tween-80 in PBS, read-out: Dissolved Drug Solubility
  solubility: 59 ± 8 µg/mL (≈ 138 µM)
[4]; 0.5% Tween-80 in PBS, aqueous with cosolvent or surfactant or cyclodextrin, 0.5% Tween-80 in PBS, read-out: Total Drug Solubility
  solubility: 55 ± 1 µg/mL (≈ 129 µM)
[4]; 1% SIF in PBS, fassgf or other biorelevant, 1% SIF in PBS, read-out: Dissolved Drug Solubility
  solubility: 16.3 ± 0.1 µg/mL (≈ 38.1 µM)
[4]; 1% SIF in PBS, fassgf or other biorelevant, 1% SIF in PBS, read-out: Total Drug Solubility
  solubility: 16.4 ± 0.1 µg/mL (≈ 38.4 µM)
[4]; 1% SLS in water, aqueous with cosolvent or surfactant or cyclodextrin, 1% SLS in H2O, read-out: Dissolved Drug Solubility
  solubility: 40 ± 1 µg/mL (≈ 93.6 µM)
[4]; 5% TPGS in PBS, aqueous with cosolvent or surfactant or cyclodextrin, 5% TPGS in PBS, read-out: Dissolved Drug Solubility
  solubility: 313 ± 21 µg/mL (≈ 732 µM)
[4]; 5% TPGS in PBS, aqueous with cosolvent or surfactant or cyclodextrin, 5% TPGS in PBS, read-out: Total Drug Solubility
  solubility: 305 ± 10 µg/mL (≈ 713 µM)
[4]; PBS/Blank FaSSIF, aqueous buffer, PBS/Blank FaSSIF, read-out: Total Drug Solubility
  solubility: 17 ± 2 µg/mL (≈ 39.8 µM)
[4]; high permeability, low solubility
  BCS classification: BCS-2
[4]; water, H2O, read-out: Total Drug Solubility
  solubility: 61 ± 14 µg/mL (≈ 143 µM)
[5]; 200 mg QD
  safety issues: no new safety issues
[5]; Cohort 1, 100 mg QD
  DLTs: No DLTs
  changes in complete blood counts or clinical chemistries: No significant changes
  tolerability: well tolerated
